Among the data in patent US8222288B2, “Small molecule inhibitors of MDM2 and the uses thereof” (The Regents of the University of Michigan, priority 2006, dated 2012) are IC50 and Ki values, retold here.

Structures are written as SMILES. “And” between values parts separate entries of the source, which are not always exact repeats. Equal values may be shown once. Read-outs that look alike come from different tables or passages of the source.

Usually IC50 stands for the point on the concentration scale where inhibition reaches its midpoint. The Ki is a dissociation constant, usually derived from enzyme kinetics or from competition with a known ligand.

In one test the target is MDM2 protein (Homo sapiens, UniProt Q00987). The test is described as follows: MDM2 binding assay (competition with F-6 probe; IC50 and calculated Ki). The following applies: F-6 [1 nM]; for IC50: MDM2 [10 nM], repeat determinations listed line by line; for Ki: value in parentheses, calculation of Ki: MDM2 [10 nM], read-out: (Ki ± SD).
Test [1] relates to HCT116 (wild-type p53) colon cancer cells. The test is described as follows: Cell growth inhibition, HCT116 p53WT. The following applies: single runs and mean ± SD line.
Protocol: (§1) Cells were seeded in 96-well flat bottom cell culture plates at a density of 3-4×10^3 cells/well and incubated in the presence of compounds for 4 days.
The test system of another test is HCT116 p53KO cells. The test is described as follows: Cell growth inhibition, HCT116 p53KO. The following applies: single runs and mean ± SD line.
Another test deals with PC-3 (p53 null) cells. The test is described as follows: Cell growth inhibition, WST-8, 4 days, PC3. Conditions: single runs and mean ± SD line.
Test [2] deals with LNCaP (p53 wild-type) cells. The test is described as follows: Cell growth inhibition, WST-8, 4 days, LNCaP. Conditions: single runs and mean ± SD line.
Protocol: (§2) To test these predictions, a cell growth assay was developed using human prostate cancer LNCaP (p53 wild-type) and PC-3 (p53 null) cell lines.
as §1
The mark [3] stands for this setting: Homo sapiens, HCT-116, read-out: HCT116 p53WT IC50 (μM), HCT116 p53WT.
[4] abbreviates: Homo sapiens, HCT-116, read-out: HCT116 p53KO IC50 (μM), HCT116 p53KO.
[5] abbreviates: Homo sapiens, 96 h, read-out: PC3 IC50 (μM), PC3 p53 null, 4 days, WST-8.
[6] abbreviates: Homo sapiens, LNCaP, 96 h, read-out: LNCaP IC50 (μM), LNCaP p53 wild-type, 4 days, WST-8.
The mark [7] stands for this setting: read-out: HCT116 p53KO IC50, HCT116 p53KO.
[8] abbreviates: read-out: HCT116 p53WT IC50, HCT116 p53WT.
Where [9] appears, read: read-out: PC3 IC50, PC3 p53 null, 4 days, WST-8.
Setting [10] is: read-out: LNCaP IC50, LNCaP p53 wild-type, 4 days, WST-8.

Sequence of MDM2 protein (Q00987 whole entry, species assumed): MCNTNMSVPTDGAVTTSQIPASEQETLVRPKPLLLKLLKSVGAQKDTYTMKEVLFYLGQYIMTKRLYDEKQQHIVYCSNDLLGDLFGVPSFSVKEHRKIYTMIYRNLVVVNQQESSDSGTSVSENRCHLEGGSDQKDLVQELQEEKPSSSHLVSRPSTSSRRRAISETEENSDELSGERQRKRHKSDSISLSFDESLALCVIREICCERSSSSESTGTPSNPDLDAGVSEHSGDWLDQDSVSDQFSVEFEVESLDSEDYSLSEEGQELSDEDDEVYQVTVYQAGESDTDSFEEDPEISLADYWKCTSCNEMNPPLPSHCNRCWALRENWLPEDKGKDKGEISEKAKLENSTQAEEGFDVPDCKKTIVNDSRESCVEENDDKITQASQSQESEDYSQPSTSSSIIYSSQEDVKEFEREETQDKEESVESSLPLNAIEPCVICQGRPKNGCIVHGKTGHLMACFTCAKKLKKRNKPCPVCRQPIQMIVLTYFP
Protocol for HCT116 p53KO cells: as §1
Protocol for PC-3 (p53 null) cells: as §2, §1

`CC(C)(C)C[C@H]1N[C@@H](C(=O)NCCC2CCC(O)C2)[C@H](c2ccc(F)c(Cl)c2)[C@@]12C(=O)Nc1cc(Cl)c(F)cc12` (some centres unmarked) [MDM2-319-5]: the IC50 at MDM2 protein is 0.055 µM and 0.04 µM; in test [1] (setting [3]) it was 0.993 µM; in the test on HCT116 p53KO cells (setting [4]) it was 10.5 µM; in the test on PC-3 (p53 null) cells (setting [5]) it was 9.47 µM; in test [2] (setting [6]) it was 0.602 µM.

Turning to `CC(=O)N1[C@@H](C(=O)NCC[C@H](O)CO)[C@H](c2ccc(F)c(Cl)c2)[C@@]2(C(=O)Nc3cc(Cl)c(F)cc32)[C@H]1CC(C)(C)C` [MI-319-13, 1′-ACETYL-6-CHLORO-4′-(3-CHLORO-4-FLUOROPHENYL)-2′-(2,2-DIMETHYL-PROPYL)-5-FLUORO-2-OXO-1,2-DIHYDRO-SPIRO[INDOLE-3,3′-PYRROLIDINE]-5′-CARBOXYLIC ACID (3,4-DIHYDROXY-BUTYL)-AMIDE], the IC50 was 5.87 µM and 5.04 µM at MDM2 protein; 32.6 µM with HCT116 p53KO cells (setting [4]); 35.1 µM and 33 µM and 33.6 µM in the test on HCT116 p53KO cells (setting [7]).

Regarding `CC(C)(C)C[C@H]1N[C@@H](C(=O)NCCC2CCC(O)C2)[C@H](c2ccc(F)c(Cl)c2)[C@@]12C(=O)Nc1cc(Cl)c(F)cc12` (single isomer, unassigned) [MDM2-319-6, 6-CHLORO-4′-(3-CHLORO-4-FLUOROPHENYL)-2′-(2,2-DIMETHYL-PROPYL)-5-FLUORO-2-OXO-1,2-DIHYDRO-SPIRO[INDOLE-3,3′-PYRROLIDINE]-5′-CARBOXYLIC ACID [2-(3-HYDROXY-CYCLOPENTYL)-ETHYL]-AMIDE], the IC50 at MDM2 protein is 0.59 µM and 0.55 µM.

Regarding `CC(C)(C)C[C@H]1N(S(=O)(=O)C(F)(F)F)[C@@H](C(=O)NCCN2CCOCC2)[C@H](c2ccc(F)c(Cl)c2)[C@@]12C(=O)Nc1cc(Cl)c(F)cc12` [MI-319-10], the IC50 in test [1] (setting [3]) was 1.41 µM; in test [1] (setting [8]), 1.95 µM and 1.09 µM and 1.48 µM; in the test with PC-3 (p53 null) cells (setting [5]), 10.5 µM; in the test on PC-3 (p53 null) cells (setting [9]), 10.4 µM and 8.07 µM and 9.63 µM; in test [2] (setting [6]), 0.776 µM; in test [2] (setting [10]) it was 0.828 µM and 0.449 µM and 0.68 µM.

For `O=C(NCC[C@H](O)CO)[C@@H]1N[C@H](C2CCCC2)[C@]2(C(=O)Nc3cc(Cl)c(F)cc32)[C@H]1c1ccc(F)c(Cl)c1` [MI-319-8, 6-CHLORO-4′-(3-CHLORO-4-FLUOROPHENYL)-2′-CYCLOPENTYL-5-FLUORO-2-OXO-1,2-DIHYDRO-SPIRO[INDOLE-3,3′-PYRROLIDINE]-5′-CARBOXYLIC ACID (3,4-DIHYDROXY-BUTYL)-AMIDE], at MDM2 protein, the IC50 is 0.34 µM and 0.53 µM.

As to `CN1CCN(C(=O)[C@@H]2N[C@H](CC(C)(C)C)[C@]3(C(=O)Nc4cc(Cl)c(F)cc43)[C@H]2c2ccc(F)c(Cl)c2)CC1` [MI-319-9], the IC50 at MDM2 protein was 3.58 µM; in test [2] (setting [6]), 2.87 µM; in test [2] (setting [10]) it was 2.77 µM and 1.75 µM.

In the case of `CC(C)(C)C[C@H]1N[C@@H](C(=O)NCCn2ccnc2)[C@H](c2ccc(F)c(Cl)c2)[C@@]12C(=O)Nc1cc(Cl)c(F)cc12` [MI-319-17, 6-CHLORO-4′-(3-CHLORO-4-FLUOROPHENYL)-2′-(2,2-DIMETHYL-PROPYL)-5-FLUORO-2-OXO-1,2-DIHYDRO-SPIRO[INDOLE-3,3′-PYRROLIDINE]-5′-CARBOXYLIC ACID (2-IMIDAZOL-1-YL-ETHYL)-AMIDE], the IC50 on MDM2 protein was 0.39 µM and 0.49 µM.

Turning to `O=C(NCC[C@H](O)CO)[C@@H]1N[C@H](C2CCCCC2)[C@]2(C(=O)Nc3cc(Cl)c(F)cc32)[C@H]1c1ccc(F)c(Cl)c1` [MDM2-319-4, 6-CHLORO-4′-(3-CHLORO-4-FLUOROPHENYL)-2′-CYCLOHEXYL-5-FLUORO-2-OXO-1,2-DIHYDRO-SPIRO[INDOLE-3,3′-PYRROLIDINE]-5′-CARBOXYLIC ACID (3,4-DIHYDROXY-BUTYL)-AMIDE], at MDM2 protein, the IC50 is 0.71 µM and 1.16 µM and 0.46 µM; the Ki is 0.066 µM.

For the compound `CC(C)(C)C[C@H]1N[C@@H](C(=O)NC[C@H](O)[C@H](O)CO)[C@H](c2ccc(F)c(Cl)c2)[C@@]12C(=O)Nc1cc(Cl)c(F)cc12` [MI-319-19, 6-CHLORO-4′-(3-CHLORO-4-FLUOROPHENYL)-2′-(2,2-DIMETHYL-PROPYL)-5-FLUORO-2-OXO-1,2-DIHYDRO-SPIRO[INDOLE-3,3′-PYRROLIDINE]-5′-CARBOXYLIC ACID (2,3,4-TRIHYDROXY-BUTYL)-AMIDE], on MDM2 protein, the IC50 is 0.5 µM and 0.49 µM.

With `CC(C)(C)C[C@H]1N[C@@H](C(=O)NCC[C@@H](O)C[C@@H](O)CC(=O)O)[C@H](c2ccc(F)c(Cl)c2)[C@@]12C(=O)Nc1cc(Cl)c(F)cc12` [MI-319-18, 7-{[6-CHLORO-4′-(3-CHLORO-4-FLUOROPHENYL)-2′-(2,2-DIMETHYL-PROPYL)-5-FLUORO-2-OXO-1,2-DIHYDRO-SPIRO[INDOLE-3,3′-PYRROLIDINE]-5′-CARBONYL]-AMINO}-3,5-DIHYDROXY-HEPTANOIC ACID], the concentration for half-maximal inhibition (IC50) was 3.51 µM and 3.57 µM on MDM2 protein; over 30 µM in test [1] (setting [3]); over 30 µM in the test on HCT116 p53KO cells (setting [4]); over 30 µM in the test with PC-3 (p53 null) cells (setting [5]); over 30 µM in test [2] (setting [6]).

For `COC(C)(C)C[C@H]1N[C@@H](C(=O)NCC[C@H](O)CO)[C@H](c2ccc(F)c(Cl)c2)[C@@]12C(=O)Nc1cc(Cl)c(F)cc12` [MI-319-7], the IC50 at MDM2 protein was 39.3 µM; in test [1] (setting [3]) it was 8.22 µM; in the test on PC-3 (p53 null) cells (setting [5]) it was 39.7 µM; in test [2] (setting [6]) it was 2.17 µM.

As for `O=C(NCC[C@H](O)CO)[C@@H]1N[C@H](Cc2ccccc2)[C@]2(C(=O)Nc3cc(Cl)c(F)cc32)[C@H]1c1ccc(F)c(Cl)c1` [MDM2-319-2], the IC50 was 175 µM and > 80 µM at MDM2 protein; 22.2 µM in the test with HCT116 p53KO cells (setting [4]); 19.5 µM and 25.4 µM and 22.4 µM in the test with HCT116 p53KO cells (setting [7]); 14.4 µM with PC-3 (p53 null) cells (setting [5]); 19.6 µM (2×) and 17.9 µM in the test with PC-3 (p53 null) cells (setting [9]). In addition, the inhibitory constant (Ki) at MDM2 protein is 16.4 µM.

In the case of `CC(C)(C)C[C@H]1N[C@@H](C(=O)NCCNC(=N)N)[C@H](c2ccc(F)c(Cl)c2)[C@@]12C(=O)Nc1cc(Cl)c(F)cc12` [MI-319-20, 6-CHLORO-4′-(3-CHLORO-4-FLUOROPHENYL)-2′-(2,2-DIMETHYL-PROPYL)-5-FLUORO-2-OXO-1,2-DIHYDRO-SPIRO[INDOLE-3,3′-PYRROLIDINE]-5′-CARBOXYLIC ACID (2-GUANIDINO-ETHYL)-AMIDE], the half-maximal inhibitory concentration (IC50) in test [2] (setting [6]) turned out to be 27.4 µM; in test [2] (setting [10]) it was 31.6 µM.

As to `CC(C)(C)C[C@H]1N[C@@H](C(=O)NCC(=O)O)[C@H](c2ccc(F)c(Cl)c2)[C@@]12C(=O)Nc1cc(Cl)c(F)cc12` [MI-319-15, {[6-CHLORO-4′-(3-CHLORO-4-FLUOROPHENYL)-2′-(2,2-DIMETHYL-PROPYL)-5-FLUORO-2-OXO-1,2-DIHYDRO-SPIRO[INDOLE-3,3′-PYRROLIDINE]-5′-CARBONYL]-AMINO}-ACETIC ACID], the IC50 at MDM2 protein was 0.35 µM and 0.18 µM; in test [1] (setting [3]) it was 12.1 µM; in test [1] (setting [8]), 12.9 µM and 13.9 µM and 13 µM; in the test on HCT116 p53KO cells (setting [4]), over 30 µM; in the test with PC-3 (p53 null) cells (setting [5]), over 30 µM; in test [2] (setting [6]) it was 4.52 µM. Also, the concentration for half-maximal inhibition (IC50) in test [2] (setting [10]) was 4.12 µM and 6.11 µM and 4.92 µM.

For the compound `O=C(NCC[C@H](O)CO)[C@@H]1N[C@H](CC2CCCC2)[C@]2(C(=O)Nc3cc(Cl)c(F)cc32)[C@H]1c1ccc(F)c(Cl)c1` [MDM2-319-1, 6-CHLORO-4′-(3-CHLORO-4-FLUOROPHENYL)-2′-CYCLOPENTYLMETHYL-5-FLUORO-2-OXO-1,2-DIHYDRO-SPIRO[INDOLE-3,3′-PYRROLIDINE]-5′-CARBOXYLIC ACID (3,4-DIHYDROXY-BUTYL)-AMIDE], on MDM2 protein, the IC50 was 0.194 µM and 0.072 µM.

For the compound `CC(C)(C)C[C@H]1N[C@@H](C(=O)NCC[C@H](O)CO)[C@H](c2ccc(F)c(Cl)c2)[C@@]12C(=O)Nc1cc(Cl)c(F)cc12` [MDM2-319, (2′R,3S,3″S,4′R,5′R)6-CHLORO-4′-(3-CHLORO-4-FLUORO-PHENYL)-2′-(2,2-DIMETHYL-PROPYL)-5-FLUORO-2-OXO-1,2-DIHYDRO-SPIRO[INDOLE-3,3′-PYRROLIDINE]-5′-CARBOXYLIC ACID (3,4-DIHYDROXY-BUTYL)-AMIDE], the 50% inhibitory concentration (IC50) in the test on HCT116 p53KO cells (setting [4]) turned out to be 12.8 ± 1.29 µM; in test [2] (setting [6]) it was 0.229 ± 0.04 µM.

Consider `CC(C)(C)C[C@H]1N[C@@H](C(=O)NCCc2ncc[nH]2)[C@H](c2cccc(Cl)c2)[C@@]12C(=O)Nc1cc(Cl)c(F)cc12` [MI-319-21], for which the IC50 in test [1] (setting [3]) was found to be 4.4 µM; in the test on HCT116 p53KO cells (setting [4]), 11.8 µM; in the test on PC-3 (p53 null) cells (setting [5]), 21.9 µM; in test [2] (setting [6]) it was 2.84 µM.

As to `CC(C)(C)C[C@H]1N[C@@H](C(=O)NCC[C@H](O)C(=O)O)[C@H](c2ccc(F)c(Cl)c2)[C@@]12C(=O)Nc1cc(Cl)c(F)cc12` [MI-319-16], the IC50 (in test [1] (setting [3]); in the test with PC-3 (p53 null) cells (setting [5])) was over 30 µM each time.
